Measured values from US9958451B2, “Near-infrared fluorescent dyes with large stokes shifts” (Portland State University, priority 2011, dated 2018).
Where “and” joins values, the source holds several entries; their conditions need not be identical. Equal entries are not always repeated. Marks after values point to notes of the source that are not given here.

Key:
[1] = Spectral properties of rhodamine bis-boronic acids and precursors in DMSO:buffer; format: physicochemical; design: Brightness: scale not given here
Description: Characterization: The spectral properties of compounds 50-53 were determined. Absorption and fluorescence spectra of solutions of the rhodamine bis-boronic acids 51 and 53, and their respective precursors 50 and 52, are shown in FIGS. 27A-C (in DMSO:buffer 1:9) and 27D-F (DMSO:buffer 1:1). […] Excitation and emission spectra were normalized to their absorbance at the excitation wavelength, and are proportional to quantum yield.

[2] = Absorbance and fluorescence in methanol; format: physicochemical
Description: Absorbance and fluorescence of compounds 22 and 8 also were measured in methanol. […] Thus, placement of the hydroxyl group proximal to the xanthene internal oxygen in compound 8 produced a bathochromic shift of 103 nm in the absorption spectrum. The transposition also imparted a corresponding shift in the excitation spectrum, and a large bathochromic shift of 128 nm in the fluorescence emission. Importantly, compound 8 absorbs and emits in the near-infrared with absorption and emission maxima of 701 nm and 816 nm, respectively.
Absorbance and fluorescence of compounds 20a and 15a also were measured in methanol. […] Thus, placement of the hydroxyl group proximal to the xanthene internal oxygen in compound 15a produced a bathochromic shift of 15 nm in the absorbance spectrum. The transposition also imparted a corresponding shift in the excitation spectrum, and a large bathochromic shift of 32 nm in the fluorescence emission.

[3] = UV-visible absorbance spectroscopy, 15 μM in 90% aqueous, 10% DMSO; format: physicochemical; settings: for Red shift of absorption spectra from 3-1 transposition versus known regiochemistry: depending on the ionization state
Description: Compounds 21 and 7 were characterized by UV-visible spectroscopy (FIG. 15). Absorbance was measured using 15 μM solutions of each compound in a solution that was 90% aqueous, 10% DMSO. The peaks at 600 nm (light dashed line) and 675 nm (light solid line) represent the dianions of compounds 21 and 7, respectively, in NaOH (pH 12). The peaks at 590 nm (heavy dashed line) and 650 nm (heavy solid line) represent a mix of mono- and dianions of compound 21 at pH 7.4 and predominantly monoanions of compound 7 at pH 9, respectively.
Compounds 22 and 8 were characterized by UV-visible spectroscopy (FIG. 16). Absorbance was measured using 15 μM solutions of each compound in a solution that was 90% aqueous, 10% DMSO. The peaks at 610 nm (light dashed line) and 685 nm (light solid line) represent the anions of compounds 22 and 8, respectively, in NaOH (pH 12). The peaks at 605 nm (heavy dashed line) and 805 nm (heavy solid line) represent the neutral forms of compounds 22 and 8 at pH 7.4, respectively.
Compounds 20a and 15a were characterized by UV-visible spectroscopy (FIG. 17). Absorbance was measured using 15 μM solutions of each compound in a solution that was 90% aqueous, 10% DMSO. The peaks at 545 nm (light dashed line) and 595 nm (light solid line) represent the respective anions, compounds 20c and 15h, in NaOH (pH 12).
Compound 15b (free amino) was characterized by UV-visible spectroscopy (FIG. 18), and compared to C.SNARF-5 (literature, SNARF=seminaphthorhodafluor). Absorbance was measured using a 15 μM solution of compound 15b in a solution that was 90% aqueous, 10% DMSO. The peak at 535 nm (heavy line) represents the predominantly phenolic form of 15b at pH 6. The peak at 615 nm (light line) represents the phenoxide of compound 15b at in NaOH (pH12). In comparison, C.SNARF-5 produces a peak at 550 nm (anionic form) and a peak at 485 nm (neutral form) (Whitaker et al., Anal. Biochem. 1991, 194, 330-344).
Absorbance was measured using 15 μM solutions of compound 15d in a solution that was 90% aqueous, 10% DMSO. The peak at 570 nm (heavy line) represents the predominantly neutral form of 15d at pH 6. The peak at 630 nm (light line) represents the phenoxide of compound 15d in NaOH (pH 12).
Compounds 20b and 15g were characterized by UV-visible spectroscopy (FIG. 20). Absorbance was measured using 15 μM solutions of each compound in a solution that was 90% aqueous, 10% DMSO. The peaks at 540 nm (dashed line) and 570 nm (solid line) represent the cations of compounds 20b and 15g, respectively, at pH 7.4.

[4] = Fluorescence emission spectra, 15 μM in 90% aqueous, 10% DMSO; format: physicochemical; settings: for Red-shifted emission from 3-1 transposition versus known regiochemistry: longest wavelength-emitting species
Description: Compounds 21 and 7 also were characterized by their fluorescence emission spectra. Fluorescence was measured using 15 μM solutions of each compound in a solution that was 90% aqueous, 10% DMSO. For compound 21, the longest wavelength emission observed from the dianions occurred near 680 nm at pH 9. For compound 7 (transposed), the longest wavelength emission observed from the monoanion occurred near 800 nm at pH 9.
Compounds 22 and 8 also were characterized by their fluorescence emission spectra. Fluorescence was measured using 15 μM solutions of each compound in a solution that was 90% aqueous, 10% DMSO For compound 22, the longest wavelength emission observed from the anion occurred near 690 nm at pH 9. […] Given the greater than 800 nm absorbance peak and the typically large Stokes shifts observed in this class of compounds, it is likely that the emission was beyond the working range of the instrument (>850 nm).
Compounds 20 and 15a also were characterized by their fluorescence emission spectra. Fluorescence was measured using 15 μM solutions of each compound in a solution that was 90% aqueous, 10% DMSO. For compound 20a, the longest wavelength emission observed from its corresponding anion, compound 20c, occurred near 640 nm in NaOH (pH 12). For compound 15a (transposed), the longest wavelength emission observed from the corresponding anion, compound 15h, occurred near 760 nm in NaOH.
Compound 15b also was characterized by its fluorescence emission spectrum and compared to C.SNARF-5. Fluorescence was measured using a 15 μM solution of compound 15b in a solution that was 90% aqueous, 10% DMSO. For C.SNARF-5, the longest wavelength emission observed from the anion occurred near 632 nm (Whitaker et al., Anal. Biochem. 1991, 194, 330-344). For compound 15b (transposed), the longest wavelength emission observed from the phenoxide occurred near 770 nm.
Fluorescence was measured using a 15 μM solution of compound 15d in a solution that was 90% aqueous, 10% DMSO. […] For compound 15d (transposed), the longest wavelength emission observed from the phenoxide occurred near 780 nm (NaOH, pH 12).
Compounds 20b and 15g also were characterized by their fluorescence emission spectra. Fluorescence was measured using 15 μM solutions of each compound in a solution that was 90% aqueous, 10% DMSO. For compound 20b, the longest wavelength emission observed from the cation occurred near 640 nm at pH 7.4. For compound 15g (transposed), the longest wavelength emission observed from the cation occurred near 770 nm at pH 7.4.

[5] = Emission in blood (whole porcine blood in buffer)
Description: Compound 15d (Table 1) was diluted to 40 μM in 50% DMSO:50% 25 mM pH 9 phosphate buffer. […] Emission remained stable for at least 1 hr. The absorption profile matches the output of a laser pointer (635-670 nm; max output <5 mW).
Its absorbance and fluorescence spectra faded over time, but remained visible after about an hour (although with only 10-20% of its original emission intensity). Molecular modeling has shown favorable structural interactions of compounds 5f and 24 with glutathione (FIG. 12—compound 24).
Spectral behavior of compound 15g (type [c] annulated seminaphtho-rhodamine methyl ester (free amine) with the 3-1 transposition) was investigated to determine its potential for sensing use in whole blood. Solutions of compound 15g in 10% or 90% by volume whole blood (porcine blood in Na-EDTA, Lampire Biological Laboratories) were investigated in a 3×3 mm cell. The fluorophore was first dissolved in 50 mM, pH 7.4 phosphate buffer to ensure complete dissolution, and in the case of 90% whole blood, this stock solution was mixed with whole blood in a 1:9 ratio. In the case of 10% whole blood, 1 part whole blood was added to 9 parts of an appropriately diluted (with deionized water) solution of compound 15g stock. In both cases, the final concentration of compound 15g was 150 μM with a final phosphate buffer concentration of 5 mM. […] Throughout much of the spectrum, the dye produces a greater absorbance than the blood alone. The change in absorbance between the two spectra provides the effective absorbance of the dye. […] The broad absorption and large Stokes shift of this dye allows significant excitation with greater than 50% efficiency at wavelengths beyond that of the major hemoglobin peaks in blood.

[6] = DMSO:buffer 1:1, pH 7.4 phosphate buffer 12.5 mM
[7] = DMSO:buffer 1:9, pH 7.4 phosphate buffer 12.5 mM
[8] = pH 6, predominantly neutral/phenolic form
[9] = NaOH (pH 12), anionic/phenoxide form, 90% aqueous 10% DMSO
[10] = 40 μM in 50% DMSO:50% 25 mM pH 9 phosphate buffer

## N=c1ccc2c(-c3ccccc3C(=O)O)c3ccc4cc(N)ccc4c3oc-2c1 [Compound 50, seminaphthorhodamine]
[1]; DMSO buffer 1:9
  Quantum yield: 19%
  Red shift of maximum absorption compared to rhodamine 110: 40 nm
  Red shift of maximum emission compared to rhodamine 110: ~100 nm
[1]; DMSO:buffer 1:1
  Brightness: 6298
  Em: 630 nm
  Ex: 542 nm
  Q.Y.: 0.30
  ε: 21064 M⁻¹ cm⁻¹
[1]; [6]
  Abs: 542 nm
[1]; DMSO:buffer 1:9
  Brightness: 8083
  Em: 628 nm
  Ex: 534 nm
  Q.Y.: 0.19
  ε: 42701 M⁻¹ cm⁻¹
[1]; [7]
  Abs: 535 nm

## COC(=O)c1ccccc1-c1c2ccc(=O)cc-2oc2c1ccc1cc(O)ccc12 [Compound 20a]
[2]
  Absorption maximum: 487 nm and 521 nm
  Emission maximum: 550 nm
[3]; [8]
  Absorbance peak: 515 nm

## COC(=O)c1ccccc1-c1c2ccc(=N)cc-2oc2c1ccc1cc(N)ccc12 [Compound 20b]
[3]; pH 7.4, 90% aqueous 10% DMSO
  Absorbance peak: 540 nm
[4]
  Stokes shift: about 100 nm
[4]; pH 7.4, cation
  Longest wavelength emission: ~640 nm

## O=C1OC2(c3ccccc31)c1ccc3cc(O)ccc3c1Oc1c2ccc2cc(O)ccc12 [Compound 21, Naphthofluorescein, reference compound]
[3]; [9]
  Absorbance peak: 600 nm
[3]; pH 7.4, 90% aqueous 10% DMSO
  Absorbance peak: 590 nm
[4]
  Stokes shift: about 80 nm
[4]; pH 9
  Longest wavelength emission: ~680 nm

## COC(=O)c1ccccc1-c1c2ccc(=O)cc-2oc2c1ccc1cccc(O)c12 [Compound 15a]
[2]
  Absorption maximum: 501 nm and 536 nm
  Bathochromic shift in the absorption spectrum versus known regiochemistry: 15 nm
  Bathochromic shift in the fluorescence emission versus known regiochemistry: 32 nm
  Emission maximum: 582 nm
[3]; 90% aqueous 10% DMSO
  Red shift of absorption spectra from 3-1 transposition versus known regiochemistry: 10-55 nm
[3]; [8]
  Absorbance peak: 525 nm

## N=c1ccc2c(ccc3c(-c4ccccc4C(=O)O)c4ccc5cc(N)ccc5c4oc32)c1 [Compound 52, naphthorhodamine]
[1]; DMSO buffer 1:9
  Quantum yield: 10%
[1]; DMSO:buffer 1:1
  Brightness: 121^g
  Em: 676 nm
  Ex: 596 nm
  Q.Y.: 0.11
  ε: 1081 M⁻¹ cm⁻¹
[1]; [6]
  Abs: 602 nm
[1]; DMSO:buffer 1:9
  Brightness: 1144^d
  Em: 668 nm
  Ex: 584 nm
  Q.Y.: 0.10
  ε: 11994 M⁻¹ cm⁻¹
[1]; [7]
  Abs: 578 nm

## COC(=O)c1ccccc1-c1c2ccc(=[N+](C)C)cc-2oc2c1ccc1cccc(O)c12 [Compound 15d]
[3]; 90% aqueous 10% DMSO
  Red shift of absorption spectra from 3-1 transposition versus known regiochemistry: 55-57 nm
[3]; [9]
  Absorbance peak: 630 nm
[3]; [8]
  Absorbance peak: 570 nm
[4]
  Enhancement of the Stokes shift by 3-1 transposition: about 92 nm
  Stokes shift: about 150 nm
  Red-shifted emission from 3-1 transposition versus known regiochemistry: about 149 nm
[4]; NaOH (pH 12), anion/phenoxide
  Longest wavelength emission: ~780 nm
[5]; [10]
  λmax em: ~790 nm
  λmax ex: ~690 nm
[5]; 5% whole blood
  Time emission remained stable: at least 1 hr
[5]; final blood concentration 5% by volume
  Loss of fluorescence on inclusion of whole blood: only minimal loss of fluorescence

## Cc1ccc(C)c(-c2c3ccc4cccc(O)c4c3oc3c2ccc2cccc(=O)c23)c1 [Compound 4a]
[5]; blood solution
  Stability of absorption in the blood solution: remained stable over extended periods of time

## COC(=O)c1ccccc1-c1c2ccc3cc(O)ccc3c2oc2c1ccc1cc(=O)ccc12 [Compound 22, naphthofluorescein methyl ester]
[2]
  Absorption maximum: 598 nm
  Emission maximum: 688 nm
[3]; [9]
  Absorbance peak: 610 nm
[3]; pH 7.4, 90% aqueous 10% DMSO
  Absorbance peak: 605 nm
[4]
  Stokes shift: about 80 nm
[4]; pH 9
  Longest wavelength emission: ~690 nm

## COC(=O)c1ccccc1-c1c2ccc(=N)cc-2oc2c1ccc1cccc(O)c12 [Compound 15b]
[3]; 90% aqueous 10% DMSO
  Red shift of absorption spectra from 3-1 transposition versus known regiochemistry: 50-65 nm
[3]; [9]
  Absorbance peak: 615 nm
[3]; [8]
  Absorbance peak: 535 nm
[4]
  Enhancement of the Stokes shift by 3-1 transposition: about 73 nm
  Stokes shift: about 155 nm
  Red-shifted emission from 3-1 transposition versus known regiochemistry: about 138 nm
[4]; pH not stated
  Longest wavelength emission: ~770 nm

## COC(=O)c1ccccc1-c1c2ccc(=O)cc-2oc2c1ccc1cc(O)ccc12 [Compound 20c]
[3]; [9]
  Absorbance peak: 545 nm
[4]
  Stokes shift: about 95 nm
[4]; NaOH (pH 12), anion/phenoxide
  Longest wavelength emission: ~640 nm
